The target of this experiment is PAI-1 (Homo sapiens, UniProt P05121). Briefly: PAI-1 inhibition in the S2251 chromogenic substrate assay (PAI functional assay). The conditions noted are these: for INHIBITION OF PAI-1 (degree of inhibition): unit assumed; for inhibition at 20 µM / inhibition at 50 µM / inhibition at 100 µM: read-out: INHIBITION OF PAI-1 (degree of inhibition); for IC50: PAI-1, S2251 assay. The format is biochemical. As to the method: In this assay, a compound is incubated with PAI-1 prior to addition to the tPA assay system. Inhibition of PAI-1 results in the production of plasmin from plasminogen. […]
Compounds of formula (A) were tested in a PAI chromogenic substrate assay. […] In turn, the plasmin cleaved the chromogenic substrate S2251 (Kabi-Vitrum) producing pNA (p-nitroaniline) which was detected scectrophotometrically at 405 nm.

Counter-ions that a name gives are not always drawn.

Sequence of PAI-1 (P05121 24-402): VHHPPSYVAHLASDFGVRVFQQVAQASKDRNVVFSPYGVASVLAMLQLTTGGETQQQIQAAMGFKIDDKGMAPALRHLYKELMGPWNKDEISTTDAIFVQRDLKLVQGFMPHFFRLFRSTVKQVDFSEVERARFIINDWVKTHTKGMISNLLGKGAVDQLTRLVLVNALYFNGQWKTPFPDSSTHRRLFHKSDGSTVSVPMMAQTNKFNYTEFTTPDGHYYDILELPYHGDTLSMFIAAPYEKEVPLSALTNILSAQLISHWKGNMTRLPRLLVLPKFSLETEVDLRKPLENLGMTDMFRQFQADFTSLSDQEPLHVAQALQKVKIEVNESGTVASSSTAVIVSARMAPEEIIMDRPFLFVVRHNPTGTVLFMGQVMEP

`O=c1[nH]/c(=C\c2ccc(Cn3ccnc3)cc2)c(=O)[nH]/c1=C\c1ccccc1` [Compound 1929, (3Z,6Z)-3-Benzylidene-6-(4-(1-imidazolylmethyl)benzylidene)-2,5-piperazinedione] displayed an INHIBITION OF PAI-1 (degree of inhibition) (6.25 μm, Table 1, first part) of 16%; an INHIBITION OF PAI-1 (degree of inhibition) (12.5 μm, Table 1, first part) of 48%; an INHIBITION OF PAI-1 (degree of inhibition) (25 μm, Table 1, first part) of 59%; an INHIBITION OF PAI-1 (degree of inhibition) (50 μm, Table 1, first part) of 45%; an INHIBITION OF PAI-1 (degree of inhibition) (100 μm, Table 1, first part) of 27%.

Regarding `CN(C)CCCOc1ccc(/C=c2\[nH]c(=O)/c(=C/c3cccnc3)[nH]c2=O)cc1` [Compound 5028, (3Z,6Z)-6-(4-(3-Dimethylaminopropoxy)benzylidene)-3-(3-pyridylmethylene)-2,5-piperazinedione], for the setting “20 μM, Table 1, second part”, the inhibition (usually the change of the read-out against control, counted positive when it falls) at 20 µM stood at 4%. For the same molecule, under “Table 1, second part”, the inhibition at 50 µM was 4% and the inhibition at 100 µM was 11%.

Take `O=C(NCCN1CCc2ccccc2C1)c1ccc(/C=c2\[nH]c(=O)/c(=C/c3ccccc3)[nH]c2=O)cc1` [Compound 5391, N-(2-(1,2,3,4-Tetrahydro-2-isoquinolyl)ethyl)-4-((3Z,6Z)-6-benzylidene-2,5-dioxo-3-piperazinylidene)methylbenzamide]: the INHIBITION OF PAI-1 (degree of inhibition) (20 μM, Table 1, second part) was 64%. Where the note is “Table 1, second part”, 6.5 µM corresponded to half-maximal inhibition (IC50).

Take `CN1CCC(N(C)Cc2ccc(/C=c3\[nH]c(=O)/c(=C/c4ccccc4)[nH]c3=O)cc2)CC1` [Compound 1983]: the INHIBITION OF PAI-1 (degree of inhibition) is, setting by setting: (6.25 μm, Table 1, first part) 0%; (12.5 μm, Table 1, first part) 0%; (25 μm, Table 1, first part) 0%; (50 μm, Table 1, first part) 14%; (100 μm, Table 1, first part) 34%.

Turning to `CN(C)CCOCCOc1ccc(/C=c2\[nH]c(=O)/c(=C/c3ccccc3)[nH]c2=O)s1` [Compound 5388, (3Z,6Z)-6-Benzylidene-3-(5-(2-(2-dimethylaminoethoxy)ethoxy)-2-thienylmethylene)-2,5-piperazinedione], the inhibition at 20 µM (20 μM, Table 1, second part) was found to be 58%. Also, for the setting “Table 1, second part”, the IC50 – broadly, the concentration at which inhibition is half-maximal – was found to be 9 µM.

In turn, `CN(C)CCN(C)c1ccc(/C=c2\[nH]c(=O)/c(=C/c3ccccc3)[nH]c2=O)s1` [Compound 5299, (3Z,6Z)-6-Benzylidene-3-(5-(2-dimethylaminoethyl)methylamino-2-thienylmethylene)-2,5-piperazinedione] registered an IC50 (Table 1, second part) of 7 µM.

On to `COc1cc2c(cc1OC)CN(CCc1ccc(NC(=O)c3ccc(/C=c4\[nH]c(=O)/c(=C/c5ccc([N+](=O)[O-])cc5)[nH]c4=O)cc3)cc1)CC2` [Compound 5402], for which the inhibition at 20 µM (20 μM, Table 1, second part) stood at 37%.

On to `COc1cc(/C=c2\[nH]c(=O)/c(=C/c3ccccc3)[nH]c2=O)ccc1OCCN(C)C` [Compound 1959, (3Z,6Z)-3,Benzylidene-6-(4-(2-dimethylaminoethoxy)-3-methoxybenzylidene)-2,5-piperazinedione hydrochloride], for which the INHIBITION OF PAI-1 (degree of inhibition) runs as follows: (6.25 μm, Table 1, first part) 1%; (12.5 μm, Table 1, first part) 2%; (25 μm, Table 1, first part) 2%; (50 μm, Table 1, first part) 1%; (100 μm, Table 1, first part) 5%.

As for `CN(C)CCCOc1ccc(/C=c2\[nH]c(=O)/c(=C/c3ccc(Cn4ccnc4)cc3)[nH]c2=O)cc1` [Compound 1975, (3Z,6Z)-3-(4-(3-Dimethylaminopropoxy)benzylidene)-6-(4-(1-imidazolylmethyl)benzylidene)-2,5-piperazinedione], the INHIBITION OF PAI-1 (degree of inhibition) was 0% (6.25 μm, Table 1, first part); 0% (12.5 μm, Table 1, first part); 0% (25 μm, Table 1, first part); 0% (50 μm, Table 1, first part); 7% (100 μm, Table 1, first part).

`CN(C)CCCOc1ccc(/C=c2\[nH]c(=O)/c(=C/c3ccc(C(=O)N4CCc5ccccc5C4)cc3)[nH]c2=O)cc1` [Compound 5376] yielded an IC50 (Table 1, second part) of 12 µM.

As to `COc1cc(C=C/C=c2\[nH]c(=O)/c(=C/c3ccccc3)[nH]c2=O)ccc1OCCN(C)C` [Compound 1950, (3Z,6Z)-3-Benzylidene-6-(4-(2-dimethylaminoethoxy)-3-methoxycinnamylidene)-2,5-piperazinedione], the INHIBITION OF PAI-1 (degree of inhibition) came out at 1% (6.25 μm, Table 1, first part); 2% (12.5 μm, Table 1, first part); 2% (25 μm, Table 1, first part); 3% (50 μm, Table 1, first part); 19% (100 μm, Table 1, first part).

For the molecule `CC(=O)Nc1ccc(/C=c2\[nH]c(=O)/c(=C/c3ccc4c(c3)OCO4)[nH]c2=O)cc1` [Compound 1845, (3Z,6Z)-3-(4-Acetamidobenzylidene)-6-(3,4-methylenedioxybenzylidene)-2,5-piperazinedione], the INHIBITION OF PAI-1 (degree of inhibition) is, setting by setting: (6.25 μm, Table 1, first part) 53%; (12.5 μm, Table 1, first part) 60%; (25 μm, Table 1, first part) 49%; (50 μm, Table 1, first part) 30%; (100 μm, Table 1, first part) 14%.

With `CN(C)CCSCc1ccc(/C=c2\[nH]c(=O)/c(=C/c3ccsc3)[nH]c2=O)cc1` [Compound 5078, (3Z,6Z)-6-(4-(2-Dimethylaminoethylthiomethyl)benzylidene)-3-(3-thenylidene)-2,5-piperazinedione], the inhibition at 20 µM (20 μM, Table 1, second part) came to 11%. Besides, where the note is “Table 1, second part”, the inhibition at 50 µM amounted to 67% and the inhibition at 100 µM worked out at 60%.

As to `CN(C)CC(=O)NCc1ccc(/C=c2\[nH]c(=O)/c(=C/c3ccccc3)[nH]c2=O)cc1` [Compound 5061, (3Z,6Z)-6-Benzylidene-3-(4-dimethylaminoacetamidomethylbenzylidene)-2,5-piperazinedione], the inhibition at 20 µM (20 μM, Table 1, second part) was determined as 60%. For the setting “Table 1, second part”, the inhibition at 50 µM came to 48% and the inhibition at 100 µM was 43%.

With `CN(C)CCCOc1ccc(/C=c2\[nH]c(=O)/c(=C/c3ccc(C(=O)NCCN4CCc5ccccc5C4)cc3)[nH]c2=O)cc1` [Compound 5386, N-(2-(1,2,3,4-Tetrahydro-2-isoquinolyl)ethyl)-4-((3Z,6Z)-6-(4-(3-dimethylaminopropoxy)benzylidene)-2,5-dioxo-3-piperazinylidene)methylbenzamide], for the setting “Table 1, second part”, the IC50 stood at 18 µM.

`CN(C)CCSCc1ccc(/C=c2\[nH]c(=O)/c(=C/c3ccoc3)[nH]c2=O)cc1` [Compound 5073, (3Z,6Z)-6-(4-(2-Dimethylaminoethylthiomethyl)benzylidene)-3-(3-furylmethylene)-2,5-piperazinedione]: the inhibition at 20 µM (20 μM, Table 1, second part) came out at 14%. Under “Table 1, second part”, the inhibition at 50 µM was found to be 70% and the inhibition at 100 µM was found to be 63%.

In the case of `CN(C)CCOc1csc(/C=c2\[nH]c(=O)/c(=C/c3ccccc3)[nH]c2=O)c1` [Compound 5327, (3Z,6Z)-6-Benzylidene-3-(4-(2-dimethylaminoethoxy)-2-thienylmethylene)-2,5-piperazinedione], the inhibition at 20 µM (20 μM, Table 1, second part) is 17%.

As for `O=c1[nH]/c(=C\c2c[nH]c3ccccc23)c(=O)[nH]/c1=C\c1ccccc1` [Compound 1509, (3Z,6Z)-3-Benzylidene-6-(3-indolylmethylene)-2,5-piperazinedione], the INHIBITION OF PAI-1 (degree of inhibition) (6.25 μm, Table 1, first part) amounted to 1%; the INHIBITION OF PAI-1 (degree of inhibition) (12.5 μm, Table 1, first part) is 1%; the INHIBITION OF PAI-1 (degree of inhibition) (25 μm, Table 1, first part) is 1%; the INHIBITION OF PAI-1 (degree of inhibition) (50 μm, Table 1, first part) turned out to be 35%; the INHIBITION OF PAI-1 (degree of inhibition) (100 μm, Table 1, first part) came to 58%. For the setting “Table 2”, this molecule had an IC50 of 50 to 100 µM.

As to `CN(C)CC(=O)NCc1ccc(/C=c2\[nH]c(=O)/c(=C/c3ccsc3)[nH]c2=O)cc1` [Compound 5074, (3Z,6Z)-6-(4-Dimethylaminoacetamidomethylbenzylidene)-3-(3-thenylidene)-2,5-piperazinedione], the inhibition at 20 µM (20 μM, Table 1, second part) came to 26%. Moreover, for the setting “Table 1, second part”, the inhibition at 50 µM is 57% and the inhibition at 100 µM turned out to be 47%.

As for `COc1ccc(/C=c2\[nH]c(=O)/c(=C/c3cccn3C(=O)OC(C)(C)C)[nH]c2=O)cc1` [Compound 1507, (3Z,6Z)-3-(4-Methoxybenzylidene)-6-(2-(1-tertbutoxycarbonyl)pyrrolyl)methylene-2,5-piperazinedione], the INHIBITION OF PAI-1 (degree of inhibition) was determined as 1% (6.25 μm, Table 1, first part); 1% (12.5 μm, Table 1, first part); 45% (25 μm, Table 1, first part); 62% (50 μm, Table 1, first part); 78% (100 μm, Table 1, first part). In addition, under “Table 2”, the IC50 lay within 25 to 50 µM.

For `CN(C)CCCOc1ccc(/C=c2\[nH]c(=O)/c(=C/c3ccc4ccccc4c3)[nH]c2=O)cc1` [Compound 5188, (3Z,6Z)-6-(4-(3-Dimethylaminopropoxy)benzylidene)-3-(2-Naphthylmethylene)-2,5-piperazinedione], under “20 μM, Table 1, second part”, the inhibition at 20 µM is 94%. For the setting “Table 1, second part”, the inhibition at 100 µM was 90% and the IC50 came to 3.5 µM.

On to `CC(=O)Nc1ccc(/C=c2\[nH]c(=O)/c(=C/C3CCCCC3)[nH]c2=O)cc1` [Compound 1672], for which the INHIBITION OF PAI-1 (degree of inhibition) runs as follows: (6.25 μm, Table 1, first part) 1%; (12.5 μm, Table 1, first part) 4%; (25 μm, Table 1, first part) 13%; (50 μm, Table 1, first part) 44%; (100 μm, Table 1, first part) 70%. Under “Table 2”, this molecule returned an IC50 of 50 to 100 µM.

Source of the values: patent US5891877A, “Pharmaceutical compounds” (Xenova Limited, priority 1996, dated 1999).
